The experiment is described as follows: Tested for maxi-K channel opening property using two -electrode voltage clamp recording from Xenopus laevis oocytes at 20 uM. In kind it is functional, frog, Oocyte.
Molecule `O=c1[nH]c2cc(C(F)(F)F)ccc2n1Cc1cc(Cl)ccc1O` came in with a Control current of 133.4%.

On to `O=[N+]([O-])c1ccc2c(c1)nc(O)n2Cc1cc(Cl)ccc1O`, for which the Control current stood at 163.1%.

The molecule `Cc1ccc2c(c1)nc(O)n2Cc1cc(Cl)ccc1O` had a Control current of 101.9%.

As for `Oc1ccc(Cl)cc1Cn1c(O)nc2ccncc21`, the Control current is listed as 100.8%.

The molecule `Oc1ccc(Cl)cc1Cn1c(O)nc2cc(F)ccc21` displayed a Control current of 105.9%.

In turn, `COc1ccc(Cl)cc1Cn1c(O)nc2ccccc21` displayed a Control current of 104.2%.

Molecule `Oc1ccc(Cl)cc1Cn1c(O)nc2cc(I)ccc21` gave a Control current of 120.2%.

In the case of `Oc1ccc(Cl)cc1Cn1c(O)nc2ccc(Cl)cc21`, the Control current is reported as 116.3%.

The molecule `Oc1ccc(Cl)cc1Cn1c(O)nc2ccccc21` registered a Control current of 110.9%.

`Oc1ccc(Cl)cc1Cn1c(O)nc2cnccc21` had a Control current of 107.2%.

`O=c1[nH]c2cc(C(F)(F)F)ccc2n1-c1cc(Cl)ccc1O` yielded a Control current of 131.8%.

`Oc1ccc2c(c1)nc(O)n2Cc1cc(Cl)ccc1O` displayed a Control current of 106%.

As to `Oc1ccc(Cl)cc1Cn1c(O)nc2ccc(Br)cc21`, the Control current was 107.9%.

For the molecule `Oc1ccc(Cl)cc1Cn1c(O)nc2cc(Cl)cc(Cl)c21`, the Control current was found to be 118.3%.

`Oc1ccc(Cl)cc1Cn1c(O)nc2cc(Cl)c(Cl)cc21` returned a Control current of 145.8%.

`Oc1ccc(Cl)cc1Cn1c(O)nc2cc(Br)ccc21` returned a Control current of 135.7%.

Turning to `Oc1ccc(Cl)cc1Cn1c(O)nc2cc(Cl)ccc21`, the Control current is 150.1%.

As to `Oc1ccccc1Cn1c(O)nc2cc(C(F)(F)F)ccc21`, the Control current was found to be 126%.

`Oc1ccccc1CCn1c(O)nc2cc(C(F)(F)F)ccc21` showed a Control current of 119.5%.

Source of the values: ChEMBL document CHEMBL1129119, “N-Benzylated benzimidazol-2-one derivatives: activators of large-conductance Ca2+-dependent K+ channels” (1996).
